Data on two compounds can be found in patent US20240018118A1, “TRICYCLIC COMPOUNDS TO DEGRADE NEOSUBSTRATES FOR MEDICAL THERAPY” (C 4 Therapeutics, Inc., priority 2020, published 2024).

Each structure is given as a SMILES string.

In general, IC50 refers to the concentration that gives 50% inhibition. In general, DC50 refers to the concentration at which degradation of the target reaches its halfway point. What is called Emax is the maximal effect, on the per cent scale that the assay sets.

Assay [1] has as its target T1, CRBN-NanoLuc® fusion protein in 293T cells (Homo sapiens, UniProt Q96SW2).
T1 construct: expressed in transfected cells; host or cells: 293T (line named 293T.116)
Kind of assay: NanoBRET assay: competitive displacement of pomalidomide-NanoBRET tracer from CRBN-NanoLuc in 293T.116 cells. The assay is classed as binding. To be noted: 2 h at 37° C., tracer at 300 nM. Here is the method: The cell permeability and binding affinity of test compounds to cellular cereblon (CRBN) was determined by competitive displacement of a pomalidomide-NanoBRET™ tracer reversibly bound to a CRBN-NanoLuc® fusion protein in 293T cells. 293T cells were modified by lentiviral transfection to express a fusion of CRBN and NanoLuc® luciferase. […] Affinity of test compound was determined by displacement of NanoBRET-pomalidomide tracer signal following the addition of NanoBRET reagents (Promega) per manufacturer's instructions.
40 μL 293T.116 cells suspended in OptiMEM media at 2×10^5 cells/mL (8000 cells/well) were dispensed using a Multidrop Combi Reagent Dispenser (Thermo Fisher) to each well of 384-well white TC-treated microplates. 10 mM DMSO test compound stock solution was serially diluted (half log) in DMSO to generate 11-point dose series (10000, 3160, 1000, 316, 100, 31.6, 10, 3.2, 1, 0.3, 0.1 μM) in an acoustic ready 384-well low dead volume microplate (Labcyte). […] 20 μL NanoBRET TE Assay reagents were added to each well and NanoBRET signal was acquired on an EnVision Multilabel Reader (PerkinElmer). Donor emission from CRBN-NanoLuc was detected at 450 nm with a NanoLuc 460/50 filter and Acceptor fluorescence of NanoBRET-pomalidomide tracer (618 nm) was detected with a 600 nm long pass NanoBRET filter. Ratio of Acceptor signal/Donor signal was calculated for each well. […]

The target of another assay is GSPT1 (Homo sapiens, UniProt P15170+Q96SW2). Put plainly: HiBiT degradation assay, 293T.114 cells, GSPT1. The assay is classed as cell-based. To be noted: 293T.114 cells, 6 hours. Here is the method: GSPT1 degradation was determined based on quantification of luminescent signal using Nano-Glo® HiBiT Lytic Assay kit. Test compounds were added to the 384-well plate from a top concentration of 10 μM with 5 points, 3-fold titration in quadruplicates. 293T.114 cells were added into 384-well plates at a cell density of 6000 cells per well. […] The cells treated in the absence of the test compound were the negative control and the cells without Nano-Glo® HiBiT Lytic reagent were the positive control. […] Luminescence was acquired on EnVision™ Multilabel Reader (PerkinElmer, Santa Clara, CA, USA).
(With HiBiT, luminescence reflects the tagged protein that the partner subunit can reach.)

The next assay addresses SALL4 (Homo sapiens, UniProt Q96SW2+Q9UJQ4). Put plainly: HiBiT degradation assay, KELLY.2 (SALL4-HiBiT) cells. The assay is classed as cell-based. Here is the method: RPMI 1640 Medium without phenol red, fetal bovine serum (FBS), and Sodium Pyruvate (100 mM) were purchased from Gibco (Grand Island, NY, USA). Nano-Glo® HiBiT Lytic Assay System was purchased from Promega (Madison, WI, USA). […] Cell culture flasks and 384-well microplates were acquired from VWR (Radnor, PA, USA).
SALL4 degradation was determined based on quantification of luminescent signal using Nano-Glo® HiBiT Lytic Assay kit. Test compounds were added to the 384-well plate from a top concentration of 10 μM with 11 points, half log titration in duplicates. KELLY.2 cells were added into 384-well plates at a cell density of 6000 cells per well. The plates were kept at 37° C. with 5% CO2 for 6 hours. The cells treated in the absence of the test compound were the negative control and the cells without Nano-Glo® HiBiT Lytic reagent were the positive control. After 6-hour incubation, Nano-Glo® HiBiT Lytic Assay reagents were added to the cells. Luminescence was acquired on EnVision™ Multilabel Reader (PerkinElmer, Santa Clara, CA, USA).

A further assay addresses T2, IKZF1 (Homo sapiens, UniProt Q13422+Q96SW2).
T2 construct: endogenously expressing IKZF1 with HiBiT fusion tag via CRISPR; endogenous in cells; host or cells: NCIH929.11 (CRISPR knock-in)
Put plainly: HiBiT degradation assay, NCIH929.11 (HiBiT-IKZF1) cells. The format is cell-based. Here is the method: RPMI no-phenol red medium and fetal bovine serum (FBS) were purchased from Gibco (Grand Island, NY, USA). Nano-Glo® HiBiT Lytic Assay System was purchased from Promega (Madison, WI, USA). NCIH929.11 (HiBiT-IKZF1) cell line was generated in house, endogenously expressing IKZF1 with HiBiT fusion tag via CRISPR. Cell culture flasks and 384-well microplates were acquired from VWR (Radnor, PA, USA).
IKZF 1 degradation was determined based on quantification of luminescent signal using Nano-Glo® HiBiT Lytic Assay kit. Test compounds were added to the 384-well plate from a top concentration of 10 μM with 11 points, half-log titration in duplicates. NCIH929.11 cells expressing HiBiT-tagged TKZF1 were added into 384-well plates in RPMI medium containing 10% FBS and 0.05 mM 2-mercaptoethanol at a cell density of 15000 cells per well. The plates were kept at 37° C. with […] for 6 hours. Cells treated in the absence of the test compound were the negative control and wells containing media only were the positive control. After 6-hour incubation, Nano-Glo® HiBiT Lytic Assay reagents were added to the designated wells. Luminescence was acquired on EnVision™ Multilabel Reader (PerkinElmer, Santa Clara, CA, USA).

The target in the next assay is T3, CRBN (Homo sapiens, UniProt Q96SW2).
T3 construct: expressed in transfected cells; host or cells: 293T (line named 293T.116)
Put plainly: NanoBRET CRBN binding, 293T.116 cells. To be noted: 2 hours.

For `O=C1CCC(N2C(=O)c3ccc(Br)c4cccc2c34)C(=O)N1` (stereo not drawn) [Compound 224], the figures for the IC50 (in assay [1]; on CRBN) were 40 nM and under 100 nM, respectively. In addition, the DC50 on GSPT1 (read-out: HiBiT-Degradation 293T.114 GSPT1 6 hours DC50) was over 10000 nM; on SALL4 (KELLY.2 cells, 6 hours), under 100 nM; at IKZF1 (NCHI929.11 cells, 6 hours), over 10000 nM. Moreover, the Emax at GSPT1 (read-out: HiBiT-Degradation 293T.114 GSPT1 6 hours Emax) was 60 to 95%; at SALL4 (read-out: HiBiT-Degradation KELLY.2 SALL4 6 hours Emax, KELLY.2 cells), under 45%; at IKZF1 (read-out: HiBiT-Degradation NCHI929.11 IKZF1 6 hours Emax, NCHI929.11 cells) it was 60 to 95%.

In assay [1], `N#Cc1ccc2c3c(cccc13)N(C1CCC(=O)NC1=O)C2=O` (stereo not drawn) [Compound 225] came in with an IC50 of 60 nM.
